Values of other authors, collected in patent publication US8158685B2, “Method for bone growth” (priority 2004, dated 2012).

What was measured:
bone graft = settings: fluoride alone added to bone graft material
spine = settings: immediate-release form, 75 mg/day with calcium carbonate over 4 years

For F [fluoride], the “improvement/increase in bone density” value (bone graft) is given as 20%.
In the case of [F-].[Na+] [sodium fluoride], the bone density increase (spine) is listed as 35% and the “effect on spinal fractures” value (spine) is listed as “failed to reduce spinal fractures”.
